Reference: patent US5726302A, “Water soluble adenosine kinase inhibitors” (Gensia Inc., priority 1995, dated 1998)
Like-named read-outs stand apart in the source and are kept apart here.

Columns and labels:
[1] = molecular target: partially purified pig heart adenosine kinase (Sus scrofa, UniProt A0A5G2R0F5); test: biochemical; settings: for IC50: pig heart adenosine kinase, 0.5 μM adenosine, pH 7.0, 20 minutes at 37° C, read-out: AK Inhibition (IC50)
Procedure: Adenosine kinase activity was measured essentially as described by Yamada et al Biochim. Biophys. Acta 660, 36-43 (1988) with a few minor modifications. Assay mixtures contained 50 mM TRIS-maleate buffer, pH 7.0, 0.1% BSA, 1 mM ATP 1 mM MgCl2, 0.5 μM [U-^14 C] adenosine (400-600 mCi/mmol) and varying duplicate concentrations of inhibitor. The reactions were initiated by addition of approximately 0.1 μU partially purified pig heart adenosine kinase, where one unit is defined as that amount of enzyme required to phosphorylate 1 μmol adenosine per minute. The reactions were incubated for 20 minutes at 37° C. The assay was quenched upon spotting 30 μL aliquots onto 2 cm^2 pieces of Whatman DE81 anion exchange paper. The paper squares were washed for 3 minutes in 6 L distilled/deionized water to remove the unreacted adenosine. […] The amount of ^14 C-AMP was quantified by scintillation counting.

mice [2] = test: HPLC analysis of plasma for metabolism in mice after oral administration; type: in vivo; settings: 10 mg/kg
Rats = test: Anti-inflammatory activity, carrageenan paw; type: in vivo, rat; settings: 10 mg/kg, swelling after 3 hours
Procedure: Carrageenan (Type λ) was suspended in sterile PBS at 1% (w/v), autoclaved for 30 minutes, and stored at room temperature. Rats were pretreated with vehicle or AK inhibitor (10 mg/kg) by oral gavage or i.p. administration and the volume of the left hind paw was measured using a water displacement plethysmometer (Stoelting Co., Wood Dale, Ill.). One hour after oral treatment or 30 minutes after i.p. treatment, the rats were briefly anesthetized, and 0.1 ml of the carrageenan solution was injected subcutaneously into the planar surface of the left hind paw. The ensuing paw swelling was measured by plethysmometry after 3 hours. The paw volume in millileters was subtracted from the pre-injection paw volume. Data are presented as the percent inhibition of paw swelling in AK inhibitor treated animals, compared to vehicle treated control animals.

male SA rats [3] = test: Anticonvulsant activity, maximal electroshock (MES) model; type: in vivo; settings: Rattus norvegicus, 1 h; po; one hour after dosing, fasted
Procedure: The anticonvulsant activity of the tested compounds was evaluated in male SA rats (100-150 g, Simonsen) using the maximal electroshock (MES) model described in Swinyard et al., Antiepileptic Drugs, 3d Ed. at 85-102 (Levy, et al., eds.), N.Y.: Raven Press (1989). The rats were maintained on a 12/12 light/dark cycle in temperature controlled facilities with free access to food and water. For p.o. administration, the animals are fasted overnight, prior to the experiment. One hour prior to seizure testing, the animals were injected interperitoneally (ip) or orally (per os, […]) with one of various doses of test compound dissolved in DMSO or PEG 400.
This endpoint was expressed as the percentage of animals in which the response was inhibited.

male SA rats [4] = test: Analgesic activity, tail flick; type: in vivo; settings: Rattus norvegicus, ip
Water solubility = type: physicochemical; settings: deionized water (DI)
Procedure: The sample was sonicated for a period of up to 20 minutes. If a solution was not obtained, further solvent was added and the process was repeated until a clear solution was obtained, and the results were recorded. Solutions used were 50 mM potassium biphthalate (pH 4); 100 mM glycine (pH 9); 25 mM sodium carbonate and 25 mM sodium bicarbonate (pH 10); or deionized water (DI).

male SA rats [5] = test: Analgesic activity, hot plate; type: in vivo; settings: Rattus norvegicus, ip
adenosine kinase = settings: read-out: Ki, inhibition of adenosine kinase; cited from earlier work
[6] = system: isolated guinea pig hearts; settings: in the absence of ADA inhibition; cited from earlier work
anesthetized rats = settings: cited from earlier work
dog hearts = settings: in vivo; cited from earlier work
ischemic cerebral injury = settings: Phillis et al.; cited from earlier work
isolated rat hearts = settings: alone, cited from earlier work
mice [7] = settings: cited from earlier work
rat cardiomyocytes = settings: inhibition of adenosine deaminase alone; cited from earlier work
[8] = ip, 30 minutes before carrageenan
[9] = po, one hour before carrageenan

Sequence of partially purified pig heart adenosine kinase (A0A5G2R0F5 1-362): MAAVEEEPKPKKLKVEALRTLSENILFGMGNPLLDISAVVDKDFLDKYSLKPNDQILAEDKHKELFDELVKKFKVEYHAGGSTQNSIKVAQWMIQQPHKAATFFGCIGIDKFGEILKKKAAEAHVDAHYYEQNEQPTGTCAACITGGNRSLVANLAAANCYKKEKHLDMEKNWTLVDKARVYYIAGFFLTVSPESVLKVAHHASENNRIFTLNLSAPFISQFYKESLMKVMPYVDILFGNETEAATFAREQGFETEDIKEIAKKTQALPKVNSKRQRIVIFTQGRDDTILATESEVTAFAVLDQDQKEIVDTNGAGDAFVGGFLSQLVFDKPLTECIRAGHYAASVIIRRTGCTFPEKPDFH

C[C@H]1O[C@@H](n2cc(I)c3c(NCCc4ccccn4)ncnc32)[C@H](O)[C@@H]1O [Compound 43, 4-N-(2-(2-pyridylethyl)amino)-5-iodo-7-(5-deoxy-1-β-D-ribofuranosyl)pyrrolo[2,3-d]pyrimidine]
AK inhibition in vitro ([1]; in vitro): weak AK inhibitor in vitro | IC50 [1]: 10000 nM | metabolism in mice shown by HPLC analysis of plasma (mice [2]): generate a potent AK inhibitor | Carrageenan Paw (% inhibition) of paw swelling (Rats; [8]): 58.6% | Carrageenan Paw (% inhibition) of paw swelling (Rats; [9]): 69.7%

C[C@H]1O[C@@H](n2cc(-c3ccccc3)c3c(Nc4ccc(CN(C)C)cc4)ncnc32)[C@H](O)[C@@H]1O [Compound 1, 4-N(N,N-Dimethylaminomethylphenyl)amino-5-phenyl-7-(5-deoxy-β-D-ribofuranosyl)pyrrolo[2,,3-d]pyrimidine]
ED50 (male SA rats [3]): > 20 mg/kg | ED50 (male SA rats [4]): 15 mg/kg | solubility (Water solubility): > 5000 µg/mL | ED50 (male SA rats [5]): 15.2 mg/kg | Carrageenan Paw (% inhibition) of paw swelling (Rats; [8]): 26.0% | Carrageenan Paw (% inhibition) of paw swelling (Rats; [9]): 19.2%

NC[C@H]1O[C@@H](n2cnc3c(N)ncnc32)[C@H](O)[C@@H]1O [5'-amino-5'-deoxyadenosine]
Ki (adenosine kinase): < 100 nM | increase of adenosine release [6]: not apparent in the absence of ADA inhibition

OC[C@H]1O[C@@H](n2cnc3c(NCCCCCCCCCCCCNc4ncnc5c4ncn5[C@@H]4O[C@H](CO)[C@@H](O)[C@H]4O)ncnc32)[C@H](O)[C@@H]1O [1,12-bis(adenosin-N^6-yl)dodecane]
Ki (adenosine kinase): < 100 nM

C[C@H]1O[C@@H](n2cc(I)c3c(NCc4ccccn4)ncnc32)[C@H](O)[C@@H]1O [Compound 41, 4-N-(2-Pyridylmethylamino)-5-iodo-7-(5-deoxy-1 -β-D-ribofuranosyl)pyrrolo[2,3-d]pyrimidine]
ED50 (male SA rats [4]): < 1 mg/kg | IC50 [1]: 70 nM | ED50 (male SA rats [5]): 1.2 mg/kg | Carrageenan Paw (% inhibition) of paw swelling (Rats; [8]): 84.8% | Carrageenan Paw (% inhibition) of paw swelling (Rats; [9]): 90.6%

Nc1ncnc2c1c(I)cn2[C@@H]1O[C@H](CO)[C@@H](O)[C@H]1O [5-iodotubercidin]
blood pressure (anesthetized rats): decrease blood pressure | heart rate (anesthetized rats): decrease blood pressure and heart rate | effects in dog hearts subjected to ischemia and reperfusion (dog hearts): inconsistent effects | protection against ischemic cerebral injury (ischemic cerebral injury): apparently does not protect against ischemic cerebral injury | increase in perfusate adenosine concentration (isolated rat hearts; hypoxic, anoxic or ischemic conditions): no increase in perfusate adenosine concentration | increase in perfusate adenosine concentration (isolated rat hearts; normoxic conditions): no increase in perfusate adenosine concentration | general flaccidity (skeletal muscle relaxation) (mice [7]): pronounced general flaccidity | hypothermia (mice [7]): hypothermia | spontaneous locomotor activity (mice [7]): much-reduced spontaneous locomotor activity

OC[C@H]1O[C@@H](n2cnc3c2N=CNC[C@H]3O)C[C@@H]1O [2'-deoxycoformycin]
effect on adenosine release from the cells (rat cardiomyocytes): no effect on adenosine release
